Results on 1 substance are retold here after patent US20240285670A1, “THERAPEUTIC TREATMENT OF TUMORS BY BLOCKING THE HEME SYNTHESIS-EXPORT AXIS” (Università degli Studi di Torino, priority 2021, published 2024).

For one data set, the system named is C80 cells. Description: Mitochondrial ATP levels in C80 cells. As to conditions: FLVCR1a-silenced vs scramble shRNA C80 cells. The format is cell-based, human. An excerpt:
(A, C, E) Activities of the mitochondrial electron transport chain complexes I-IV. FLVCR1a-silenced Caco2 (A), SKCO1 (C) or C80 cells (E) are compared to cells expressing a scramble shRNA. Results were expressed as nmol NAD^+/min/mg mitochondrial protein for complex I, nmol reduced cytochrome c/min/mg mitochondrial protein for complexes II-III, nmol oxidized cytochrome c/min/mg mitochondrial protein for complex IV. Data represent mean±SEM, n=3. For statistical analyses, an unpaired Student's t-test was used; *=p<0.05, **=p<0.01. (B, D, F) Mitochondrial ATP levels measured by a bioluminescent assay kit. FLVCR1a-silenced Caco2 (B), SKCO1 (D) or C80 cells (F) are compared to cells expressing a scramble shRNA. Results are expressed as nmol/mg mitochondrial proteins. […] Results were expressed as nmol NAD^+/min/mg mitochondrial protein for complex I, nmol reduced cytochrome c/min/mg mitochondrial protein for complexes II-III, nmol oxidized cytochrome c/min/mg mitochondrial protein for complex IV. […] (H) Mitochondrial ATP levels measured by a bioluminescent assay kit in Caco2 cells overexpressing FLVCR1a (indicated as FLVCR1a+) compared to cells stably transduced with an empty vector. Results are expressed as nmol/mg mitochondrial proteins. […]
ATP levels in mitochondria extracts were assessed by the ATP Bioluminescent Assay Kit (Sigma-Aldrich, St. Louis, MO USA, catalog n° FLAA). […]

The subject of the next data set is BTECs. Description: BTECs counting (cell proliferation). Particulars: FLVCR1a-silenced vs scramble shRNA BTECs, 24, 48 and 72 hours. It counts as cell-based, human. An excerpt:
(A) BTECs counting, as a readout of cell proliferation, at the indicated time points. […] Data represent mean±SEM, n=4. For statistical analyses, a two-way analysis of variance was used, followed by the Bonferroni correction for multiple group comparisons; ***p<0.001. (B) Quantification of BTECs migration rate in wound-healing assay. […] Data represent mean±SEM, n=32. For statistical analyses, a nonparametric unpaired Mann-Whitney test was used; ***p<0.001. (C) In vitro tubulogenesis assay on matrigel. […] The number of nodes counted within the neo-formed vascular networks is shown. Data represent mean±SEM; n=10. For statistical analyses, a nonparametric unpaired Mann-Whitney test was used; **p<0.01.
For cell counting, 1*10^4 BTECs were seeded in 12-well plates and counted at 24, 48 and 72 hours after plating, as a readout of cell proliferation. Three independent experiments were performed.

“FLVCR1a shRNA: shRNA specifically down-regulating FLVCR1a without targeting FLVCR1b; pLKO.1 lentiviral clone TRCN0000059599, antisense SEQ ID No.: 2 (antisense TTGCTAATGATGCTGTACTGG; sense CCAGTACAGCATCATTAGCAA)”: in the data set with C80 cells, the “mitochondrial ATP levels” value is “increased”. The “cell proliferation (cell counting)” value in the data set on BTECs is “reduced proliferation”.
